Experiments:
HepG2 = test: Cytotoxicity against human HepG2 cells co-expressing luciferase gene under control of CYP3A4 promoter measured after 24 hrs by CellTiter-Glo luminescent cell viability assay; type: ADME, cell-based; conditions: Homo sapiens, HepG2, 24 h
[1] = biological target: T1, Nuclear receptor subfamily 1 group I member 2 (Homo sapiens, UniProt O75469); test: Displacement of BODIPY FL vindoline from GST-tagged human PXR LBD incubated for 60 mins by TR-FRET assay
T1 sequence (O75469 whole entry): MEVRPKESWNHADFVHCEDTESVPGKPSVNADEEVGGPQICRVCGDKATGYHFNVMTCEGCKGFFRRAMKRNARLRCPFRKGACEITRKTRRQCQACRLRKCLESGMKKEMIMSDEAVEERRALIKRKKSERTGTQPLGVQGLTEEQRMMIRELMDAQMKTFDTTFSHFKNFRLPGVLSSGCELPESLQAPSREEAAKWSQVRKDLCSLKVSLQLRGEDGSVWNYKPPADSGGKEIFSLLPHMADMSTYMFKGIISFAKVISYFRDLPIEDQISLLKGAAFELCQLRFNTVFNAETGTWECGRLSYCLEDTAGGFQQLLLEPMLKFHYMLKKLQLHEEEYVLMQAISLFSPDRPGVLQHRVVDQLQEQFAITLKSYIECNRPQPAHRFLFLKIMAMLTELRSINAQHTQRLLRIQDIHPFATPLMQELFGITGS

PXR (NR1I2) [2] = biological target: T2, PXR (NR1I2) (Homo sapiens, UniProt O75469); test: Displacement of BODIPY FL vindoline from GST-tagged human PXR LBD at 10 uM incubated for 60 mins by TR-FRET assay relative to control; conditions: GST-tagged human PXR LBD (recombinant protein), probe BODIPY FL vindoline
T2 sequence (O75469 whole entry): T1 sequence (O75469 whole entry)

[3] = biological target: T1, Nuclear receptor subfamily 1 group I member 2; test: Agonist activity at human PXR expressed in HepG2 cells co-expressing luciferase gene under control of CYP3A4 promoter incubated for 24 hrs by luciferase reporter assay
PXR (NR1I2) [4] = biological target: T2, PXR (NR1I2); test: Agonist activity at human PXR expressed in HepG2 cells co-expressing luciferase gene under control of CYP3A4 promoter at 10 uM incubated for 24 hrs by luciferase reporter assay relative to control
[5] = biological target: T1, Nuclear receptor subfamily 1 group I member 2; test: Antagonist activity at human PXR expressed in HepG2 cells co-expressing luciferase gene under control of CYP3A4 promoter incubated for 24 hrs in presence of 5 uM rifampicin by luciferase reporter assay
PXR (NR1I2) [6] = biological target: T2, PXR (NR1I2); test: Inhibition of human PXR expressed in HepG2 cells co-expressing luciferase gene under control of CYP3A4 promoter at 10 uM incubated for 24 hrs in presence of 5 uM rifampicin by luciferase reporter assay relative to control; type: cell-based

IC50 [1]	inhibition at 1 h, 10 µM (PXR (NR1I2) [2])	EC50 [3]	activity at 24 h, 10 µM (PXR (NR1I2) [4])	IC50 [5]	inhibition at 24 h, 10 µM (PXR (NR1I2) [6])	Structure (SMILES)	IC50 (HepG2)
1.4 µM	80%	0.4 µM	77%	9 µM	111%	COc1cc(C(C)=O)c(C)cc1-n1nnc(S(=O)(=O)c2ccc(C(C)(C)C)cc2)c1C	16.5 µM
1.07 µM	48%	1.6 µM	58%	4 µM	33%	COc1cc(C#N)c(C)cc1-n1nnc(S(=O)(=O)c2ccc(C(C)(C)C)cc2)c1C	–
0.7 µM	71%	0.8 µM	51%	2 µM	57%	COc1cc(Cl)c(C)cc1-n1nnc(S(=O)(=O)c2ccc(C(C)(C)C)cc2)c1C	–
1.2 µM	87%	1 µM	33%	2.3 µM	64%	COc1cc(C)c(Cl)cc1-n1nnc(S(=O)(=O)c2ccc(C(C)(C)C)cc2)c1C	–
4 µM	87%	1 µM	24%	2 µM	72%	COc1cc(-n2nnc(S(=O)(=O)c3ccc(C(C)(C)C)cc3)c2C)c(OC)cc1F	–
0.6 µM	40%	1 µM	49%	3.4 µM	44%	COc1cc(C#N)c(Cl)cc1-n1nnc(S(=O)(=O)c2ccc(C(C)(C)C)cc2)c1C	–
0.5 µM	73%	0.6 µM	75%	–	30%	COc1cc(-n2nnc(S(=O)(=O)c3ccc(C(C)(C)C)cc3)c2C)c(OC)cc1C	–
0.7 µM	35%	1.9 µM	62%	10 µM	51%	COC(=O)c1cc(OC)c(-n2nnc(S(=O)(=O)c3ccc(C(C)(C)C)cc3)c2C)cc1Cl	–
0.55 µM	67%	0.6 µM	26%	–	38%	COc1cc(Br)c(Cl)cc1-n1nnc(S(=O)(=O)c2ccc(C(C)(C)C)cc2)c1C	–
1.5 µM	59%	0.7 µM	58%	–	–	CCc1cc(OC)c(-n2nnc(S(=O)(=O)c3ccc(C(C)(C)C)cc3)c2C)cc1Cl	–
1.5 µM	64%	1.6 µM	75%	6 µM	32%	COC(=O)c1cc(OC)c(-n2nnc(S(=O)(=O)c3ccc(C(C)(C)C)cc3)c2C)cc1C	–

Continued, compound first:

Structure (SMILES)	IC50 [1]	inhibition at 1 h, 10 µM (PXR (NR1I2) [2])	EC50 [3]	activity at 24 h, 10 µM (PXR (NR1I2) [4])	IC50 [5]	inhibition at 24 h, 10 µM (PXR (NR1I2) [6])	IC50 (HepG2)
COc1ccc(OC)c(-n2nnc(S(=O)(=O)c3ccc(C(C)(C)C)cc3)c2C#N)c1	0.3 µM	97%	0.26 µM	88%	2.4 µM	38%	–
COc1ccc(OC)c(-n2cc(S(=O)(=O)c3ccc(C(C)(C)C)cc3)nn2)c1	1.4 µM	98%	1.4 µM	35%	3.4 µM	71%	–
COc1ccc(C)cc1-n1cc(S(=O)(=O)c2ccc(C(C)(C)C)cc2)nn1	0.5 µM	98%	0.6 µM	69%	5 µM	44%	–
COc1ccc(CO)cc1-n1nnc(S(=O)(=O)c2ccc(C(C)(C)C)cc2)c1C	1.4 µM	95%	0.81 µM	82%	2 µM	64%	–
COc1ccccc1-n1nnc(S(=O)(=O)c2ccc(C(C)(C)C)cc2)c1C	0.53 µM	103%	0.8 µM	56%	1 µM	53%	–
COc1ccc(OC)c(-n2nnc(S(=O)(=O)c3ccc(C(C)(C)C)cc3)c2N)c1	0.18 µM	85%	0.43 µM	53%	1.7 µM	52%	–
COc1ccc(C)cc1-n1nnc(S(=O)(=O)c2ccc(C(C)(C)C)cc2)c1N	0.28 µM	88%	0.16 µM	73%	3.3 µM	46%	–
COc1ccc(OC)c(-n2nnc(S(=O)(=O)c3ccc(Cl)cc3)c2C)c1	1.9 µM	102%	2.3 µM	99%	–	–	–
COc1cc(-n2nnc(S(=O)(=O)c3ccc(C(C)(C)C)cc3)c2C)c(OC)cc1C#N	0.36 µM	36%	1.1 µM	88%	–	–	–
COc1ccc(C)cc1-c1ncc(S(=O)(=O)c2ccc(C(C)(C)C)cc2)n1C	1.6 µM	92%	0.99 µM	74%	–	–	–
COc1ccc(C)cc1-n1nnc(S(=O)(=O)c2ccc(C(C)(C)C)cc2)c1C#N	0.21 µM	97%	0.16 µM	131%	–	–	–
COc1ccc(Cl)cc1-n1nnc(S(=O)(=O)c2ccc(C(C)(C)C)cc2)c1N	0.5 µM	93%	0.11 µM	42%	4.4 µM	78%	–

Source: ChEMBL document CHEMBL4834393, “Building a Chemical Toolbox for Human Pregnane X Receptor Research: Discovery of Agonists, Inverse Agonists, and Antagonists Among Analogs Based on the Unique Chemical Scaffold of SPA70” (J Med Chem, 2021)
